According to patent US7332504B2, “Heterocyclic substituted aminoazacycles useful as central nervous system agents” (Abbott Laboratories, priority 1999, dated 2008):
pKi: −log10 of the molar value. Counter-ions that a name gives are not always drawn. Like-named read-outs stand apart in the source and are kept apart here.

Target: T1, neuronal nicotinic acetylcholine receptors (Rattus norvegicus, UniProt P09483+P12390)
T1 construct: crude synaptic membrane preparations from whole rat brain; from tissue; host or cells: whole rat brain, crude synaptic membranes
T1 sequence (P09483 31-630): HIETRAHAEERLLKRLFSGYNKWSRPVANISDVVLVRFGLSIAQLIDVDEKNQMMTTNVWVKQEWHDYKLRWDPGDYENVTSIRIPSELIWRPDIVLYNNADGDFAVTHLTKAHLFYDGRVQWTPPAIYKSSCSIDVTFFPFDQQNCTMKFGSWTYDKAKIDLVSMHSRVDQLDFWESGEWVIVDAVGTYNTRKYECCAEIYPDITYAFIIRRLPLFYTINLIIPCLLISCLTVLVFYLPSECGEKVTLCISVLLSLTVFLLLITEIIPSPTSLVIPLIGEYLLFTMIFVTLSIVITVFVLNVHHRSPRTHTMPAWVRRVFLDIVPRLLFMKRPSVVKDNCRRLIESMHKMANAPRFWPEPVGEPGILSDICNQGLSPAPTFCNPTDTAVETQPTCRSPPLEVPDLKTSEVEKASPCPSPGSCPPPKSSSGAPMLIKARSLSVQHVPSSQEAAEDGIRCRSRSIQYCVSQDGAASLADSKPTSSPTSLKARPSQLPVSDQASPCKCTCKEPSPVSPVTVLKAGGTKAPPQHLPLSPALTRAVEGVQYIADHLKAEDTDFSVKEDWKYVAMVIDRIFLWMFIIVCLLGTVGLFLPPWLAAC
T1 sequence (P12390 25-500): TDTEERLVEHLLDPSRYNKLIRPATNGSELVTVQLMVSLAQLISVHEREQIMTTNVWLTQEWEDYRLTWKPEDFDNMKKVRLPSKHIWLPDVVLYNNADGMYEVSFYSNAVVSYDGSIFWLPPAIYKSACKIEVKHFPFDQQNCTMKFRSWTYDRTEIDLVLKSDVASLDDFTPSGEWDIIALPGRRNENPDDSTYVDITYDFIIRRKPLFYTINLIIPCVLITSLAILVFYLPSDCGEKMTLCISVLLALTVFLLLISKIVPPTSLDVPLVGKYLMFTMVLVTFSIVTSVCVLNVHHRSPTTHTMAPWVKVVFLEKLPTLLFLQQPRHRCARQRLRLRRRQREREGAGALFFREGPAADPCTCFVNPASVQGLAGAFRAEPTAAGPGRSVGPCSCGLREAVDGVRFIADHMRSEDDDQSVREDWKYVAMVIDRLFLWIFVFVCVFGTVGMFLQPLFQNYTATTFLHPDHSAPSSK
Experiment: Binding of [3H]-cytisine to neuronal nicotinic acetylcholine receptors, crude synaptic membranes from whole rat brain
Procedure: The In Vitro protocols for determination of nicotinic acetylcholine channel receptor binding potencies of ligands were determined as follows.
Binding of [^3H]-cytisine ([^3 H]-CYT) to neuronal nicotinic acetylcholine receptors was accomplished using crude synaptic membrane preparations from whole rat brain (Pabreza et al., Molecular Pharmacol., 1990, 39:9). Washed membranes were stored at —80° C. prior to use. Frozen aliquots were slowly thawed and resuspended in 20 volumes of buffer (containing: 120 mM NaCl, 5 mM KCl, 2 mM MgCl2, 2 mM CaCl2 and 50 mM Tris-Cl, pH 7.4 @4° C.). After centrifuging at 20,000×g for 15 minutes, the pellets were resuspended in 30 volumes of buffer.
The test compounds were dissolved in water to make 10 mM stock solutions. Each solution was then diluted (1:100) with buffer (as above) and further taken through seven serial log dilutions of produce test solution from 10^−5 to 10^−11 M.
Homogenate (containing 125-150 μg protein) was added to triplicate tubes containing the range of concentrations of test compound described above and [^3H]-CYT (1.25 nM) in a final volume of 500 μL. Samples were incubated for 60 minutes at 4° C., then rapidly filtered through Whatman GF/B filters presoaked in 0.5% polyethyleneimine using 3×4 mL of ice-cold buffer. The filter are counted in 4 mL of Ecolume® (ICN). Nonspecific binding was determined in the presence of 10 μM (−)-nicotine and values were expressed as a percentage of total binding. IC50 values were determined with the RS-1 (BBN) nonlinear least squares curve-fitting program and IC50 values were converted to Ki values using the Cheng and Prusoff correction ([…].

[1] = [3H]-cytisine 1.25 nM, whole rat brain membranes, 60 minutes at 4° C., Ki from IC50 by Cheng and Prusoff correction, read-out: Average Ki

SMILES | pKi [1] | pKi
NC1CN(c2ccc(Cl)nc2)C1 [Example 50, 1-(6-chloro-3-pyridinyl)-3-azetidinylamine 4-methylbenzenesulfonate] | 6.76 | –
C[C@@H]1CCN(c2ccc(Cl)nc2)C[C@H]1N (relative stereo) [Example 40, (trans) 1-(6-chloro-3-pyridinyl)-4-methyl-3-piperidinylamine hydrochloride] | – | 8.27
C[C@H]1CCN(c2ccc(Cl)nc2)C[C@H]1N (relative stereo) [Example 39, (cis) 1-(6-chloro-3-pyridinyl)-4-methyl-3-piperidinylamine hydrochloride] | – | 7.07
CN[C@@H]1CCN(c2cnc(F)c(C)c2)C1 [Example 28, N-[(3R)-1-(6-fluoro-5-methyl-3-pyridinyl)pyrrolidinyl]-N-methylamine dihydrochloride] | – | 7.41
NC1CCN(c2cccnc2)C1 (centres unmarked) [Example 10, 1-(3-pyridinyl)-3-pyrrolidinylamine bis(4-methylbenzenesulfonate)] | – | 9.82
CN[C@@H]1CCN(c2cncc([N+](=O)[O-])c2)C1 [Example 32, N-methyl-N-[(3R)-1-(5-nitro-3-pyridinyl)pyrrolidinyl]amine fumarate] | – | 6.71
N[C@@H]1CCN(c2cccnc2)[C@@H]1CCl [Example 51, (2S,3R)-2-(chloromethyl)-1-(3-pyridinyl)pyrrolidinylamine dihydrochloride] | – | 6.15
CN[C@@H]1CCCN(c2cccnc2)C1 [Example 44, N-methyl-N-[(3R)-1-(3-pyridinyl)piperidinyl]amine dihydrochloride] | – | 6.69
CN(C)[C@@H]1CCN(c2ccc(Cl)nc2)C1 [Example 6, N-[(3R)-1-(6-chloro-3-pyridinyl)pyrrolidinyl]-N,N-dimethylamine 4-methylbenzenesulfonate] | – | 7.00
CN[C@H]1CCN(c2cncc([N+](=O)[O-])c2)C1 [Example 30, N-methyl-N-[(3S)-1-(5-nitro-3-pyridinyl)pyrrolidinyl]amine fumarate] | – | 7.92
CN[C@H]1CCN(c2cnc(F)c(C)c2)C1 [Example 26, N-[(3S)-1-(6-fluoro-5-methyl-3-pyridinyl)pyrrolidinyl]-N-methylamine dihydrochloride] | – | 8.82
Cc1cc(N2CC[C@@H](N)C2)cnc1F [Example 27, (3R)-1-(6-fluoro-5-methyl-3-pyridinyl)pyrrolidinylamine hydrochloride] | – | 9.36
NC1CCN(c2ccc(Cl)nc2)CC1 [Example 37, 1-(6-chloro-3-pyridinyl)-4-piperidinylamine 4-methylbenzenesulfonate] | 7.04 | –
CN[C@@H]1CCN(c2cncc(C(F)(F)F)c2)C1 [Example 12, N-methyl-N-{(3R)-1-[5-(trifluoromethyl)-3-pyridinyl]pyrrolidinyl}amine hydrochloride] | 6.94 | –
N[C@@H]1CCN(c2cncc(C(F)(F)F)c2)C1 [Example 11, (3R)-1-[5-(trifluoromethyl)-3-pyridinyl]pyrrolidinylamine dihydrochloride] | – | 8.52
N[C@H]1CCN(c2cncc(C(F)(F)F)c2)C1 [Example 13, (3S)-1-[5-(trifluoromethyl)-3-pyridinyl]pyrrolidinylamine dihydrochloride] | – | 9.00
CN[C@H]1CCN(c2cncc(C(F)(F)F)c2)C1 [Example 14, N-methyl-N-{(3S)-1-[5-(trifluoromethyl)-3-pyridinyl]pyrrolidinyl}amine hydrochloride] | – | 8.20
